# Measurements as given in PubChem BioAssay (NCI).
#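 How tested: cells in 96-well plates exposed to compound for 48 hours at five concentrations. GI50: concentration for 50% inhibition of growth. The concentration for full growth arrest is given as TGI.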
# Columns and labels:
# Experiment in all cases: NCI-60 cell line screen, 48 h
# 786-0 renal = system: 786-0 renal
# A498 renal = system: A498 renal
# A549 NSCLC = system: A549 NSCLC
# ACHN renal = system: ACHN renal
# BT-549 breast = system: BT-549 breast
# CAKI-1 renal = system: CAKI-1 renal
# CCRF-CEM leukemia = system: CCRF-CEM leukemia
# COLO 205 colon = system: COLO 205 colon
# DU-145 prostate = system: DU-145 prostate
# EKVX NSCLC = system: EKVX NSCLC
# HCC-2998 colon = system: HCC-2998 colon
# HCT-116 colon = system: HCT-116 colon
# HCT-15 colon = system: HCT-15 colon
# HL-60(TB) leukemia = system: HL-60(TB) leukemia
# HOP-62 NSCLC = system: HOP-62 NSCLC
# HOP-92 NSCLC = system: HOP-92 NSCLC
# HS 578T breast = system: HS 578T breast
# HT29 colon = system: HT29 colon
# IGROV1 ovarian = system: IGROV1 ovarian
# K-562 leukemia = system: K-562 leukemia
# KM12 colon = system: KM12 colon
# LOX IMVI melanoma = system: LOX IMVI melanoma
# M14 melanoma = system: M14 melanoma
# MALME-3M melanoma = system: MALME-3M melanoma
# MCF7 breast = system: MCF7 breast
# MDA-MB-231 breast = system: MDA-MB-231 breast
# MDA-MB-435 = system: MDA-MB-435
# MOLT-4 leukemia = system: MOLT-4 leukemia
# NCI-H226 lung = system: NCI-H226 lung
# NCI-H23 lung = system: NCI-H23 lung
# NCI-H460 lung = system: NCI-H460 lung
# NCI-H522 lung = system: NCI-H522 lung
# NCI/ADR-RES ovarian = system: NCI/ADR-RES ovarian
# OVCAR-4 ovarian = system: OVCAR-4 ovarian
# OVCAR-5 ovarian = system: OVCAR-5 ovarian
# OVCAR-8 ovarian = system: OVCAR-8 ovarian
# RPMI-8226 leukemia = system: RPMI-8226 leukemia
# RXF 393 renal = system: RXF 393 renal
# SF-268 CNS = system: SF-268 CNS
# SF-295 CNS = system: SF-295 CNS
# SF-539 CNS = system: SF-539 CNS
# SK-MEL-2 melanoma = system: SK-MEL-2 melanoma
# SK-MEL-28 melanoma = system: SK-MEL-28 melanoma
# SK-MEL-5 melanoma = system: SK-MEL-5 melanoma
# SK-OV-3 ovarian = system: SK-OV-3 ovarian
# SN12C renal = system: SN12C renal
# SNB-19 CNS = system: SNB-19 CNS
# SNB-75 CNS = system: SNB-75 CNS
# SR leukemia = system: SR leukemia
# SW-620 colon = system: SW-620 colon
# T-47D breast = system: T-47D breast
# TK-10 renal = system: TK-10 renal
# U251 CNS = system: U251 CNS
# UACC-257 melanoma = system: UACC-257 melanoma
# UACC-62 melanoma = system: UACC-62 melanoma
# UO-31 renal = system: UO-31 renal
# OVCAR-3 ovarian = system: OVCAR-3 ovarian
# PC-3 prostate = system: PC-3 prostate
smiles,measurement,setting,value
O=C(CCC1OCCO1)Nc1cc(NCc2ccccc2)ccc1OCc1ccccc1,TGI,786-0 renal,> 100 µM
same,TGI,A498 renal,> 100 µM
same,TGI,A549 NSCLC,> 100 µM
same,TGI,ACHN renal,> 100 µM
same,TGI,BT-549 breast,> 100 µM
same,TGI,CAKI-1 renal,71.3 µM
same,TGI,CCRF-CEM leukemia,45.7 µM
same,TGI,COLO 205 colon,52.1 µM
same,TGI,DU-145 prostate,> 100 µM
same,TGI,EKVX NSCLC,65.5 µM
same,TGI,HCC-2998 colon,> 100 µM
same,TGI,HCT-116 colon,> 100000 nM
same,TGI,HCT-15 colon,> 100 µM
same,TGI,HL-60(TB) leukemia,97.3 µM
same,TGI,HOP-62 NSCLC,> 100 µM
same,TGI,HOP-92 NSCLC,73.3 µM
same,TGI,HS 578T breast,> 100 µM
same,TGI,HT29 colon,96.6 µM
same,TGI,IGROV1 ovarian,> 100 µM
same,TGI,K-562 leukemia,> 100 µM
same,TGI,KM12 colon,97.9 µM
same,TGI,LOX IMVI melanoma,> 100 µM
same,TGI,M14 melanoma,> 100 µM
same,TGI,MALME-3M melanoma,62.7 µM
same,TGI,MCF7 breast,> 100 µM
same,TGI,MDA-MB-231 breast,> 100 µM
same,TGI,MDA-MB-435,63.9 µM
same,TGI,MOLT-4 leukemia,81.5 µM
same,TGI,NCI-H226 lung,> 100 µM
same,TGI,NCI-H23 lung,> 100 µM
same,TGI,NCI-H460 lung,> 100 µM
same,TGI,NCI-H522 lung,78.6 µM
same,TGI,NCI/ADR-RES ovarian,> 100 µM
same,TGI,OVCAR-4 ovarian,> 100 µM
same,TGI,OVCAR-5 ovarian,> 100 µM
same,TGI,OVCAR-8 ovarian,58.6 µM
same,TGI,RPMI-8226 leukemia,> 100 µM
same,TGI,RXF 393 renal,77.8 µM
same,TGI,SF-268 CNS,> 100 µM
same,TGI,SF-295 CNS,> 100 µM
same,TGI,SF-539 CNS,94.6 µM
same,TGI,SK-MEL-2 melanoma,49.7 µM
same,TGI,SK-MEL-28 melanoma,> 100 µM
same,TGI,SK-MEL-5 melanoma,35.3 µM
same,TGI,SK-OV-3 ovarian,> 100 µM
same,TGI,SN12C renal,> 100 µM
same,TGI,SNB-19 CNS,> 100 µM
same,TGI,SNB-75 CNS,> 100 µM
same,TGI,SR leukemia,92 µM
same,TGI,SW-620 colon,> 100 µM
same,TGI,T-47D breast,> 100 µM
same,TGI,TK-10 renal,83.4 µM
same,TGI,U251 CNS,> 100 µM
same,TGI,UACC-257 melanoma,53.3 µM
same,TGI,UACC-62 melanoma,> 100 µM
same,TGI,UO-31 renal,> 100 µM
CC(CO)(CO)NCCCCn1ccc2c1C(=O)c1c(c(O)c3ccccc3c1O)C2=O,GI50,786-0 renal,10.9 µM
same,TGI,786-0 renal,26.9 µM
same,GI50,A498 renal,22.3 µM
same,TGI,A498 renal,51 µM
same,GI50,ACHN renal,6.27 µM
same,TGI,ACHN renal,> 100 µM
same,GI50,BT-549 breast,19.9 µM
same,TGI,BT-549 breast,51.2 µM
same,GI50,CAKI-1 renal,13.6 µM
same,TGI,CAKI-1 renal,30.4 µM
same,GI50,COLO 205 colon,3.01 µM
same,TGI,COLO 205 colon,31.3 µM
same,GI50,DU-145 prostate,16.1 µM
same,TGI,DU-145 prostate,30.5 µM
same,GI50,EKVX NSCLC,17.8 µM
same,TGI,EKVX NSCLC,44.5 µM
same,GI50,HCC-2998 colon,6.2 µM
same,TGI,HCC-2998 colon,20.9 µM
same,GI50,HCT-116 colon,1580 nM
same,TGI,HCT-116 colon,2920 nM
same,GI50,HL-60(TB) leukemia,2370 nM
same,TGI,HL-60(TB) leukemia,> 100 µM
same,GI50,HOP-62 NSCLC,14 µM
same,TGI,HOP-62 NSCLC,28.9 µM
same,GI50,HOP-92 NSCLC,5.73 µM
same,TGI,HOP-92 NSCLC,22.7 µM
same,GI50,HS 578T breast,30.3 µM
same,TGI,HS 578T breast,73.4 µM
same,GI50,KM12 colon,1400 nM
same,TGI,KM12 colon,2.7 µM
same,GI50,M14 melanoma,1730 nM
same,TGI,M14 melanoma,3.41 µM
same,GI50,MALME-3M melanoma,1690 nM
same,TGI,MALME-3M melanoma,7.38 µM
same,GI50,MCF7 breast,17.1 µM
same,TGI,MCF7 breast,53.4 µM
same,GI50,MDA-MB-435,1760 nM
same,TGI,MDA-MB-435,3.56 µM
same,GI50,NCI-H23 lung,15.8 µM
same,TGI,NCI-H23 lung,36.4 µM
same,GI50,NCI-H460 lung,13.7 µM
same,TGI,NCI-H460 lung,42.9 µM
same,GI50,NCI/ADR-RES ovarian,2360 nM
same,TGI,NCI/ADR-RES ovarian,6.02 µM
same,GI50,OVCAR-3 ovarian,5.78 µM
same,TGI,OVCAR-3 ovarian,29.1 µM
same,GI50,OVCAR-5 ovarian,16 µM
same,TGI,OVCAR-5 ovarian,29.5 µM
same,GI50,OVCAR-8 ovarian,3.48 µM
same,TGI,OVCAR-8 ovarian,12 µM
same,GI50,PC-3 prostate,1520 nM
same,TGI,PC-3 prostate,3.11 µM
same,GI50,RXF 393 renal,4.49 µM
same,TGI,RXF 393 renal,31.7 µM
same,GI50,SF-268 CNS,14.4 µM
same,TGI,SF-268 CNS,40.9 µM
same,GI50,SF-295 CNS,11.2 µM
same,TGI,SF-295 CNS,26.6 µM
same,GI50,SF-539 CNS,15.3 µM
same,TGI,SF-539 CNS,47.1 µM
same,GI50,SK-OV-3 ovarian,27.4 µM
same,TGI,SK-OV-3 ovarian,98.7 µM
same,GI50,SN12C renal,11.2 µM
same,TGI,SN12C renal,24.2 µM
same,GI50,SNB-19 CNS,18.4 µM
same,TGI,SNB-19 CNS,42.2 µM
same,GI50,SW-620 colon,5.47 µM
same,TGI,SW-620 colon,29.2 µM
same,GI50,T-47D breast,21.1 µM
same,TGI,T-47D breast,65.8 µM
same,GI50,TK-10 renal,1510 nM
same,TGI,TK-10 renal,4.57 µM
same,GI50,UO-31 renal,4.18 µM
same,TGI,UO-31 renal,> 100 µM
